From patent US20110275678A1, “New Pyridine Derivatives as Leptin Receptor Modulator Mimetics” (priority 2008, published 2011)

Columns and labels:
JEG-3 cells [1] = experiment: [3H]-thymidine incorporation by JEG-3 cells (leptin assay in non-recombinant system); format: cell-based; conditions: FIG. 5
Text: Leptin Assay in Non-Recombinant System The leptin receptor expression in non-recombinant system is often fluctuating and care must be given to identify a system where signal stability remains within experiments. Using such a system, leptin receptor antagonist mimetics could be identified by evaluating is their action vs. leptin (see below). Leptin is produced chiefly in adipose cells, but in humans, mRNA encoding leptin is also present in the placenta. Here, leptin might play an important proliferative role in the microvasculature. The possibility to use this hypothesis in a native cell line was evaluated. JEG-3 Protocol In JEG-3 cells (choriocarcinoma cell line) leptin is able to stimulate proliferation up to 3 fold (Biol. Reprod. (2007) 76: 203-10). […] The radioactivity incorporated by the cells is an index of their proliferative activity and is measured in counts per minute (CPM) with a liquid scintillation beta counter. This finding can be applied to test whether a compound is able to either reproduce the effect of leptin on cell proliferation (leptin receptor agonist mimetic) (i.e., a given compound will cause an increase in incorporated [^3H]-Thymidine by the cells) or to inhibit the effect of leptin (antagonistic effect) by preventing the leptin-mediated increase in [^3H]-thymidine incorporation. […]

JEG-3 cells [2] = conditions: Biol. Reprod. (2007) 76: 203-10; cited from earlier work

## leptin: a hormone synthesized in fat cells that is believed to act in the hypothalamus to reduce food intake and body weight
JEG-3 cells [1]; JEG-3 cells (choriocarcinoma cell line), read-out: EC50, increase in [3H]-thymidine incorporation
  EC50: 2.1 nM
JEG-3 cells [1]; JEG-3 cells
  concentration of maximal effect on [3H]-thymidine incorporation: 100 nM
JEG-3 cells [2]
  stimulation of proliferation: up to 3 fold
